Experimental data published in patent US12428406B2 (PMV Pharmaceuticals, Inc., priority 2019, dated 2025).

biological target: T1, p53 Y220C (Homo sapiens, UniProt P04637, Y220C); assay: In vitro DNA binding activity assay (HTRF / TR-FRET): stabilization of p53 Y220C and increase of its DNA binding activity; type: biochemical; conditions: recombinant His-tagged p53 Y220C DNA binding domain (aa 94-312), biotin-labeled consensus DNA, incubated at 27° C. or 29° C. for 60 min
T1 construct: The recombinant protein was a truncation mutant containing only amino acids 94-312 of p53; made in house; host or cells: E. coli
T1 sequence (P04637 94-312, change not shown): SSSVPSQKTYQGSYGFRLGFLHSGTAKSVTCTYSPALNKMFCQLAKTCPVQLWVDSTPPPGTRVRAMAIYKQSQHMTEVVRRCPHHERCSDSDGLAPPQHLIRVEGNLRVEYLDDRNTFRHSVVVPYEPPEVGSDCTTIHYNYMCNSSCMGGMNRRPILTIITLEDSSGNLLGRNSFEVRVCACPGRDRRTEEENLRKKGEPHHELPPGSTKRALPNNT
In short: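 Homogeneous time-resolved fluorescence with E. coli-derived p53 Y220C and biotinylated consensus DNA. Room-temperature incubations of 15 and 20 min precede reading. SC150 denotes the compound concentration required for 50% increased DNA binding.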

SC150 (concentration of the compound required to increase the DNA binding activity by 50%), + (+ = 0 μM ≤ SC150 < 0.05 μM):
CCN1CC[C@H](Nc2cccc3c2cc(C#CCNc2ccc(C(=O)O)cc2OC)n3CC(F)(F)F)[C@H](F)C1 [Compound 828A, 4-{[3-(4-{[(3R,4S)-1-ethyl-3-fluoropiperidin-4-yl]amino}-1-(2,2,2-trifluoroethyl)-1H-indol-2-yl)prop-2-yn-1-yl]amino}-3-methoxybenzoic acid]
CCN1CC[C@@H](Nc2cccc3c2cc(C#CCNc2ccc(C(=O)O)cc2OC)n3CC(F)(F)F)[C@@H](F)C1 [Compound 829A, 4-{[3-(4-{[(3S,4R)-1-ethyl-3-fluoropiperidin-4-yl]amino}-1-(2,2,2-trifluoroethyl)-1H-indol-2-yl)prop-2-yn-1-yl]amino}-3-methoxybenzoic acid]
CN1CC[C@@H](Nc2cccc3c2cc(C#CCNc2ccc(S(C)(=O)=O)cc2O)n3CC(F)(F)F)[C@@H](F)C1 [Compound 834A, 2-{[3-(4-{[(3S,4R)-3-fluoro-1-methylpiperidin-4-yl]amino}-1-(2,2,2-trifluoroethyl)-1H-indol-2-yl)prop-2-yn-1-yl]amino}-5-methanesulfonylphenol]
CN1CC[C@H](Nc2cccc3c2cc(C#CCNc2ccc(S(C)(=O)=O)cc2O)n3CC(F)(F)F)[C@H](F)C1 [Compound 835A, 2-{[3-(4-{[(3R,4S)-3-fluoro-1-methylpiperidin-4-yl]amino}-1-(2,2,2-trifluoroethyl)-H-indol-2-yl)prop-2-yn-1-yl]amino}-5-methanesulfonylphenol]
COc1cc(S(=O)(=O)NC(C)=O)ccc1NCC#Cc1cc2c(N[C@@H]3CCN(C)C[C@@H]3F)cccc2n1CC(F)(F)F [Compound 837A, N-(4-{[3-(4-{[(3S,4R)-3-fluoro-1-methylpiperidin-4-yl]amino}-1-(2,2,2-trifluoroethyl)-1H-indol-2-yl)prop-2-yn-1-yl]amino}-3-methoxybenzenesulfonyl)acetamide]
COc1cc(S(=O)(=O)NC(C)=O)ccc1NCC#Cc1cc2c(N[C@H]3CCN(C)C[C@H]3F)cccc2n1CC(F)(F)F [Compound 838A, N-(4-{[3-(4-{[(3R,4S)-3-fluoro-1-methylpiperidin-4-yl]amino}-1-(2,2,2-trifluoroethyl)-1H-indol-2-yl)prop-2-yn-1-yl]amino}-3-methoxybenzenesulfonyl)acetamide]
CCOC(=O)c1ccc(NCC#Cc2cc3c(N[C@@H]4CCN(C)C[C@@H]4F)cccc3n2CC(F)(F)F)c(OC)c1 [Compound 839A, Ethyl 4-((3-(4-(((3S,4R)-3-fluoro-1-methylpiperidin-4-yl)amino)-1-(2,2,2-trifluoroethyl)-1H-indol-2-yl)prop-2-yn-1-yl)amino)-3-methoxybenzoate]
CCOC(=O)c1ccc(NCC#Cc2cc3c(N[C@H]4CCN(C)C[C@H]4F)cccc3n2CC(F)(F)F)c(OC)c1 [Compound 840A, ethyl 4-((3-(4-(((3R,4S)-3-fluoro-1-methylpiperidin-4-yl)amino)-1-(2,2,2-trifluoroethyl)-1H-indol-2-yl)prop-2-yn-1-yl)amino)-3-methoxybenzoate]
CN1CC[C@H](Nc2cccc3c2cc(C#CCNc2ccc(S(C)(=O)=O)cc2OCF)n3CC(F)(F)F)[C@H](F)C1 [Compound 841A]
CN1CC[C@@H](Nc2cccc3c2cc(C#CCNc2ccc(S(C)(=O)=O)cc2OCF)n3CC(F)(F)F)[C@@H](F)C1 [Compound 842A]
CCOc1cc(S(C)(=O)=O)ccc1NCC#Cc1cc2c(N[C@@H]3CCN(C)C[C@@H]3F)cccc2n1CC(F)(F)F [Compound 843A]
CCOc1cc(S(C)(=O)=O)ccc1NCC#Cc1cc2c(N[C@H]3CCN(C)C[C@H]3F)cccc2n1CC(F)(F)F [Compound 844A]
COc1cc(S(N)(=O)=O)ccc1NCC#Cc1cc2c(N[C@@H]3CCNC[C@@H]3F)cccc2n1CC(F)(F)F [Compound 845A]
COc1cc(S(N)(=O)=O)ccc1NCC#Cc1cc2c(N[C@H]3CCNC[C@H]3F)cccc2n1CC(F)(F)F [Compound 846A]
COc1cc(S(C)(=O)=O)ccc1NCC#Cc1cc2c(N[C@H]3CCNC[C@H]3F)cccc2n1CC(F)(F)F [Compound 848A]
COc1cc(C(N)=O)ccc1NCC#Cc1cc2c(N[C@@H]3CCNC[C@@H]3F)cccc2n1CC(F)(F)F [Compound 849A, 4-{[3-(4-{[(3S,4R)-3-fluoropiperidin-4-yl]amino}-1-(2,2,2-trifluoroethyl)-1H-indol-2-yl)prop-2-yn-1-yl]amino}-3-methoxybenzamide]
CNC(=O)c1ccc(NCC#Cc2cc3c(N[C@H]4CCNC[C@H]4F)cccc3n2CC(F)(F)F)c(OC)c1 [Compound 851A]
COc1cc(C(=O)O)ccc1NCC#Cc1cc2c(N[C@H]3CCNC[C@H]3F)cccc2n1CC(F)(F)F [Compound 852A]
COc1cc(S(C)(=O)=O)ccc1NCC#Cc1cc2c(N[C@@H]3CCN(CCO)C[C@@H]3F)cccc2n1CC(F)(F)F [Compound 853A, 2-[(3S,4R)-3-fluoro-4-[(2-{3-[(4-methanesulfonyl-2-methoxyphenyl)amino]prop-1-yn-1-yl}-1-(2,2,2-trifluoroethyl)-1H-indol-4-yl)amino]piperidin-1-yl]ethan-1-ol]
COc1cc(S(C)(=O)=O)ccc1NCC#Cc1cc2c(N[C@H]3CCN(CCO)C[C@H]3F)cccc2n1CC(F)(F)F [Compound 854A, 2-[(3R,4S)-3-fluoro-4-[(2-{3-[(4-methanesulfonyl-2-methoxyphenyl)amino]prop-1-yn-1-yl}-1-(2,2,2-trifluoroethyl)-1H-indol-4-yl)amino]piperidin-1-yl]ethan-1-ol]
COc1cc(S(C)(=O)=O)ccc1NCC#Cc1cc2c(N[C@@H]3CCN(C(=O)CN(C)C)C[C@@H]3F)cccc2n1CC(F)(F)F [Compound 855A, 2-(dimethylamino)-1-[(3S,4R)-3-fluoro-4-[(2-{3-[(4-methanesulfonyl-2-methoxyphenyl)amino]prop-1-yn-1-yl}-1-(2,2,2-trifluoroethyl)-1H-indol-4-yl)amino]piperidin-1-yl]ethan-1-one]
